In brackets after ≈: the same amount, converted by molar mass.
Key:
[1] = test system: Limulus Amoebocyte Lysate
murine macrophage cells = test: nitric oxide production by murine macrophage cells (Griess); assay type: cell-based, C57/BL6 mice; details: for Max concentration: concentration at maximum amplitude; for EC50 conc: concentration corresponding to 50% of maximum amplitude; for Min concentration: lowest concentration inducing a significant response
Text: Six-week old male C57/BL6 mice are killed by CO2 inhalation. The hip, femur, tibia and posterior appendage bones are removed. The bone marrow is extracted from the bone lumen by injecting Dulbecco's Modified Eagle Medium (DH medium) from the end portions which had been excised. The stem cells are washed and resuspended (approximate cell concentration 4000 cells/ml) in DH medium supplemented with 20% equine serum (SH) and 30% L929 cell supernatant. L929 is a murine fibroblast cell line the supernatant fluid of which is rich in growth factor for macrophage cells (M-CSF). The cell suspension is divided into Petri dishes which are incubated for 8 days in an incubator at 37° C. under 8% CO2 and a moisture saturated atmosphere.
After 8 days, the stem cells have differentiated into mature macrophage cells. The macrophage cells are scraped off by rapid cooling, washed and resuspended in DH medium supplemented with 5% foetal calf serum (FCS), amino acids and antibiotics. The cell density is adjusted to 700 000 cells/ml.
Products previously dissolved in DH medium supplemented with 5% FCS, amino acids and antibiotics are serially diluted directly in microtiter plates. The products are tested in triplicates and each microtiter plate comprises a negative control containing plain medium. The final volume in each well is 100 μl.
100 μl of cell suspension are added to diluted solutions of such products and the cells are incubated for 22 hours in an incubator at 37° C., under 8% CO2 and a moisture saturated atmosphere. At the end of the incubation period with the products, 100 μl of supernatant are withdrawn and the nitrite concentration is determined by running a Griess reaction.
100 μl of Griess reagent (5 mg/ml of sulfanilamide+0.5 mg/ml of N-(1-naphtylethylene diamine hydrochloride)) in 2.5% aq. phosphoric acid, are added to each well. The microtiter plates are read with a spectrophotometer at 562 nm wavelength against a reference sample at 690 nm. The nitrite concentration is proportional to nitric oxide content being formed. The nitrite content is determined based on a standard curve.
The results are given as mean value±standard deviation and plotted as a dose versus response curve.
From this dose versus response curve, 3 curve variables are computed:
Max: maximum curve amplitude and corresponding concentration
EC50: concentration corresponding to 50% of maximum amplitude
Min: lowest concentration inducing a significant proliferation corresponding to the blank±3× standard deviation value
Concentration values corresponding to EC50 and Min are determined from line segments joining different points on the curve.
If the curve has no plateau phase but an ascending configuration for the highest concentration being tested, a “>” sign is shown before “Max” and “EC50” values.

[2] = test system: predendritic cells (DC-6); test: dendritic cell differentiation test: FITC-Dextran take-up; assay type: cell-based, human; details: for Dextran % CD / Dextran Fluorescence: 10 μg/ml; for Dextran % CD: products redissolved in pyrogen-free water, % of dendritic cells; for Dextran Fluorescence: mean fluorescence value
Experimental: (§1) The ability of products of the invention to induce maturation of predendritic cells into dendritic cells was assessed. The following parameters were measured: FITC-Dextran conjugate take-up and expression of CD83, CD86 surface markers.
(§2) Mononucleated cells of peripheral blood are isolated from buffy coats of healthy donors. Purified monocytes by adherence selection are resuspended in RPMI-1640 medium containing 10% of foetal calf serum (FCS), GM-CSF and IL-4 (10 ng/ml) at a density of 1×10^6 cells/ml. Cells are divided into Petri Dishes (10×10^6 cells per dish) and cultured for 6 days with a change to fresh medium after 3 days. Cells thus obtained are called predendritic cells (DC-6). Maturation of predendritic cells into mature dendritic cells is achieved by incubating cells with diluted solutions of the products or LPS (positive control) for 3 more days (see product section below). At day 9 (DC-9), cells are harvested and analyzed for different indicators of dendritic cell maturation: assessment of CD83, CD86 surface marker expression as well as of their ability to take up FITC-Dextran conjugate. All these parameters are analyzed by an EPICS-XL-MCL model FACS (Coulter Immunology, Hialeah, […]).
(§3) Expression of surface markers is given as % of mean fluorescence of LPS-activated cells (positive control); FITC-Dextran conjugate take-up rate is calculated based on take-up of cells maintained in basic medium and is expressed in %.
(§4) Solutions are incubated at 37° C. for 20 minutes, subjected to vigorous stirring during 3 minutes and then diluted to 100 μg/ml in RPMI-1640 culture medium and used in diluted state at concentrations ranging from 10 μg/ml to 0.03 μg/ml. Reference Product: E. coli lipopolysaccharide (LPS, DIFCO, Detroit, Mich., U.S.A.), as a 5 mg/ml stock solution in PBS. An intermediate 100 μg/ml solution is prepared in RPMI 1640 culture medium. Concentrations of dilute solutions being tested range from 1 μg/ml to 0.03 μg/ml.
(§5) In another series of experiments, all acyl dipeptide-like compounds were freeze-dried and directly redissolved into pyrogen-free water. Different products as well as LPS control are tested at a concentration of 10 μg/ml. Results are given as % of dendritic cells and mean fluorescence value for dextran phagocytosis or CD86 surface marker expression.
Immature dendritic cells (DC-6) resulting from monocyte differentiation, through the joint action of GM-CSF and IL-4, are able to incorporate FITC-Dextran conjugate. During the maturation process, cells lose their ability to incorporate the FITC-Dextran conjugate. Assays are conducted upon reaching the DC-9 differentiation stage.

[3] = test system: CD83, CD86 surface markers of predendritic cells (DC-6); test: dendritic cell differentiation test: CD83, CD86 surface marker expression; assay type: cell-based, human; details: for CD86 % CD / CD86 Fluorescence: 10 μg/ml; for CD86 % CD: products redissolved in pyrogen-free water, % of dendritic cells; for CD86 Fluorescence: mean fluorescence value
Experimental: as §1, §2, §3, §4, §5

SMILES | LAL EU/mg of product [1] | LAL ng of LPS equivalent per mg of product [1] | Max concentration (murine macrophage cells) [µg/mL] | EC50 conc (murine macrophage cells) [µg/mL] | Min concentration (murine macrophage cells) [µg/mL] | Dextran % CD [2] [%] | Dextran Fluorescence [2] | CD86 % CD [3] [%] | CD86 Fluorescence [3] | effect on maturation of dendritic cells ([2]; 0.03 to 10 μg/ml) | concentration inducing differentiation of DC-6 cells into DC-9 cells ([2]; summary of phagocytosis and marker data) | concentration inducing an increase in expression of CD83 and CD86 surface markers ([3]; FIGS. 75 & 76)
CCCCCCCCCCCC(=O)O[C@H](CCCCCCCCCCC)CC(=O)N[C@H](CC(=O)NCCCN)C(=O)NCCC[C@H](CO)NC(=O)C[C@H](O)CCCCCCCCCCC [OM-197-AP, N—[(R)-3-dodecanoyloxytetradecanoyl]-D-aspartic acid, α-N-{(4R)-5-hydroxy-4-[(R)-3-hydroxy-tetradecanoylamino]pentyl}-amide β-N-(3-aminopropyl)amide] | <0.5 EU/mg of product | <0.04 ng of LPS equivalent per mg of product | > 100 | > 13.69 | 1.87 | 56.1 | 4.4 | 62.0 | 4.8 | – | – | –
CCCCCCCCCCCC(=O)O[C@H](CCCCCCCCCCC)CC(=O)N[C@H](CC(=O)N[C@@H](CC(=O)O)C(=O)O)C(=O)NCCC[C@H](CO)NC(=O)C[C@H](O)CCCCCCCCCCC [OM-197-Asp, N—[(R)-3-dodecanoyloxytetradecanoyl]-D-aspartic acid, α-N-{(4R)-5-hydroxy-4-[(R)-3-hydroxytetradecanoylamino]-pentyl}Amide β-N-[(1S)-1,2-Dicarboxyethyl]Amide] | <2.5 EU/mg of product | <0.2 ng of LPS equivalent per mg of product | 51 | 0.95 (≈ 0.966 µM) | 0.086 | 26.4 | 2.4 | 29.0 | 2.6 | – | – | –
CCCCCCCCCCCC(=O)O[C@H](CCCCCCCCCCC)CC(=O)N[C@H](CC(=O)N[C@@H](CC(=O)O)C(=O)O)C(=O)NCCC[C@H](COC(=O)CCCCCN)NC(=O)C[C@H](O)CCCCCCCCCCC [OM-197-Asp-AC, N—[(R)-3-dodecanoyloxytetradecanoyl]-D-aspartic acid, α-N-{(4R)-5-(6-aminohexanoyloxy)-4-[(R)-3-hydroxytetradecanoyl-amino]-pentyl}amide β-N-[(1S)-1,2-dicarboxyethyl]Amide] | 2307 EU/mg of product | 184.6 ng of LPS equivalent per mg of product | > 100 | > 7.04 | 2.00 | 22.0 | 22.1 | 26.7 | 2.4 | – | – | –
CCCCCCCCCCCC(=O)O[C@H](CCCCCCCCCCC)CC(=O)NC(CCOP(=O)(O)O)C(=O)NCCCC(COC(=O)CCCCC(O)CO)NC(=O)C[C@H](O)CCCCCCCCCCC (stereo partly drawn) [OM-197-FV6, 3-[(R)-dodecanoyloxytetradecanoylamino]-4oxo-5-aza-9-[(R)-3-hydroxytetradecanoylamino]-decan-1,10-diol 1-dihydrogenphate 10-(6,7-dihydroxyheptanoate)] | 540 EU/mg of product | 43 ng of LPS equivalent per mg of product | 25.6 | 1.49 (≈ 1.38 µM) | 0.20 | 84.5 | 6.3 | 62.9 | 4.9 | apparently no effect | totally lack such an activity | no effect at all
CCCCCCCCCCCC(=O)O[C@H](CCCCCCCCCCC)CC(=O)N[C@H](CC(=O)N[C@@H](CCCCN)C(=O)O)C(=O)NCCC[C@H](COC(=O)CCCCCN)NC(=O)C[C@H](O)CCCCCCCCCCC [OM-197-Lys-AC] | <2.5 EU/mg of product | <0.2 ng of LPS equivalent per mg of product | > 50 | > 11.06 | 1.46 | 92.2 | 6.8 | 93.5 | 6.9 | – | – | –
